Values after ≈ are worked out from the molar mass of the structure shown. “Also recorded” adds a separate entry of the source.
Experiments:
[1] = tested on: A. baumannii ATCC 19606; test: MIC, microbroth dilution (EUCAST); format: cell-based, Acinetobacter baumannii; conditions: Acinetobacter baumannii, ATCC19606, 18 h
Description: (§1) Reference bacterial strains were obtained from the American Type Culture Collection (ATCC). Vancomycin resistant Enterococcus faecium (VRE 734, wastewater isolate from the Venter Laboratory Collection) was isolated on Bile Esculin agar (Oxoid, Australia) containing 6 μg/mL vancomycin and identified using MALDI-TOF mass spectrometry (Bruker, Preston, Victoria, Australia, Australian Center for Antimicrobial Resistance Ecology). The Pseudomonas aeruginosa WT PAO1 and Escherichia coli with deletions of both acrA and acrB genes encoding drug efflux pumps were obtained from the Venter laboratory stock ([Welch et al., 2010]). The protocol for microbial growth was adopted from the European Committee on Antimicrobial Susceptibility Testing (EUCAST) ([European Committee for Antimicrobial Susceptibility Testing, 2016]).
(§2) Non-fastidious bacteria and clinical isolates were maintained in Mueller Hinton (MH) broth (Acumedia, United Kingdom) supplemented with 15% (v/v) glycerol (Chem-Supply, Australia), cultured on Mueller Hinton (MH) agar (Acumedia, United Kingdom) plated and incubated at 37°C. Fastidious bacteria were maintained in Brain Heart Infusion (BHI) broth (Acumedia, United Kingdom) supplemented with 15% (v/v) glycerol at −80°C. The fastidious bacteria were cultured on MH agar plates supplemented with 5% (v/v) lysed horse blood and 3% (v/v) fetal bovine serum and incubated at 30°C in the presence of 5% CO2. Drug susceptibility assays were carried out with the non-fastidious cultures grown in cation-adjusted Mueller Hinton (CaMH) broth (Becton Dickinson, France). Streptococcus pyogenes was grown in CaMH broth supplemented with 5% (v/v) lysed horse blood and 3% (v/v) fetal bovine serum whereas Enterococcus faecium was grown in BHI broth.
(§3) The minimum inhibitory concentrations (MICs) for all six compounds were determined using the microbroth dilution protocol as per EUCAST with an inoculum of approximately […] in an exponential growth phase ([European Committee for Antimicrobial Susceptibility Testing, 2016]). Bacterial suspension, 100 μL/well, was added to 100 μL/well of drug dilutions, then incubated for 18 h at 37°C. Fastidious bacterial suspensions were instead incubated at 30°C in the presence of 5% CO2. Bacterial growth was assessed by measuring the change in A600 nm between time 0 and 18 h (Cytation5® Cell Imaging Multi-Mode Reader, Bio-Tek®). Levofloxacin was used as the positive control. Assays were completed in duplicate in at least three independent experiments.

[2] = tested on: A. baumannii XDR UW 5075; test: MIC, microbroth dilution (EUCAST); format: cell-based, Acinetobacter baumannii; conditions: Acinetobacter baumannii, XDRUW5075, 18 h
Description: as §1, §2, §3

[3] = tested on: A. baumannii ATCC 19606; test: Checkerboard titration MIC with efflux pump inhibitor PAβN; format: cell-based; conditions: Acinetobacter baumannii, ATCC19606, A. baumannii ATCC 19606
Description: (§4) To determine if expression of efflux pumps would play a role in the efflux of the cinnamaldehyde derivatives leading to poor antimicrobial activity, interactions between PAβN and the LXC compounds were assessed by checkerboard titration assay. The checkerboard titration assay was performed as previously described ([Chai et al., 2020]). Briefly, PAβN was added in the first row and serially diluted in CaMH broth along the ordinate of the microwell plate while the LXC compounds were serially diluted along the abscissa. Bacterial suspension for A. baumannii ATCC 19606 or AB UW 5075 100 μL/well were added as described for the MIC assay. Bacterial growth was assessed at A600 nm between time 0 and 18 h (Cytation5® Cell Imaging Multi-Mode Reader, Bio-Tek®).

[4] = tested on: A. baumannii XDR UW 5075; test: as above; format: cell-based, Acinetobacter baumannii; conditions: for MIC in combination with PAβN: PAβN concentration not given in the sentence
Description: as §4

[5] = tested on: Pseudomonas aeruginosa ATCC 27853; test: Antibacterial activity (MIC), microbroth dilution; format: cell-based; conditions: Pseudomonas aeruginosa, ATCC27853, read-out: Antibacterial activity (MIC)
Description: as §1, §2, §3

[6] = biological target: T1, mammalian tubulin (Sus scrofa, UniProt P02550+P02554); test: Mammalian tubulin polymerization assay kit; format: biochemical, porcine; conditions: compounds at 1 × MIC, 1 mM GTP, 37°C
T1 construct: purchased Cytoskeleton Inc. BK011P
T1 sequence (P02550 whole entry): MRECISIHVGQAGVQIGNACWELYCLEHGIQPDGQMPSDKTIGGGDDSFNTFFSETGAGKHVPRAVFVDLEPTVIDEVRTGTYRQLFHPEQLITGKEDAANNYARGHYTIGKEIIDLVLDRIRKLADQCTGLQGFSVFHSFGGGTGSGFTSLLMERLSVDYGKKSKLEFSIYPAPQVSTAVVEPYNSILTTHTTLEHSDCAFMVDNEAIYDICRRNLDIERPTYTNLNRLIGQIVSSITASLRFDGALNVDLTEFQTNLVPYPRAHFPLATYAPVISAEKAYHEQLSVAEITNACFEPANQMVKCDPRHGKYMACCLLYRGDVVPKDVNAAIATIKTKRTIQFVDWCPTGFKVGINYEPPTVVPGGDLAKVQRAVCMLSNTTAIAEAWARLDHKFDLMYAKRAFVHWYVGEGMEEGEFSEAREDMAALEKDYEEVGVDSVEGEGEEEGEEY
T1 sequence (P02554 whole entry): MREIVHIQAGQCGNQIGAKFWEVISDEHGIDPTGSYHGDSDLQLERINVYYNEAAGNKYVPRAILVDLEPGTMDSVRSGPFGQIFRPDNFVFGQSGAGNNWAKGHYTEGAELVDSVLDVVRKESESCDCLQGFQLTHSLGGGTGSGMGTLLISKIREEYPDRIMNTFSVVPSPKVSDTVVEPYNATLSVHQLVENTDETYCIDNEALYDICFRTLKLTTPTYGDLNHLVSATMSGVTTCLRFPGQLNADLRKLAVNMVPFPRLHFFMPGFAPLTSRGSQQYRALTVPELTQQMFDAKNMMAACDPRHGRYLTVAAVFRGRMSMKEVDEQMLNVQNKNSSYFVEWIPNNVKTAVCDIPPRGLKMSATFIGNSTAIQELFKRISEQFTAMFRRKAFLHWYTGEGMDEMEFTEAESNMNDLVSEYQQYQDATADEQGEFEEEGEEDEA
Description: The effects of the cinnamaldehyde analogs were analyzed for off-target effects on mammalian tubulin using the protocol as previously described ([Chai et al., 2020]), using a Tubulin Polymerization Assay Kit (Cytoskeleton Inc., BK011P, Denver, CO, United States), following the protocol described by the manufacturer.
Controls included 20 μM paclitaxel (promoter of polymerization), 20 μM vinblastine (inhibitor of polymerization) and 2.5% (v/v) DMSO (solvent control). The reaction was initiated by the addition of 1 mM GTP at 37°C. The fluorescence was read for 2,000 s using PerkinElmer Enspire® plate reader.
FIGURE 7 The effect of the LXC compounds on the polymerization of mammalian tubulin. (A–F) The polymerizing activity of the LXC compounds on porcine tubulin was assessed using a commercial Tubulin Polymerization Assay Kit. The LXC compounds at 1 × MIC were pre-incubated with tubulin on ice before the reaction was initiated by the addition of 1 mM GTP. The fluorescence was measured as a function of time at A360 and A420 nm excitation and emission wavelengths, respectively, at the constant temperature of 37°C. DMSO 2.5% (v/v) (brown curves) was used as vehicle control while paclitaxel (polymerization stabilizer; blue curves) and vinblastine (polymerization inhibitor; green curves) at 20 μM each were also included as controls.

[7] = tested on: HepG2 (ATCC HB-8065) cells; test: RealTime-Glo MT cell viability assay; format: cell-based; conditions: 24 h
Description: The effects of the cinnamaldehyde analogs were analyzed for off-target effects on mammalian cells using the protocol as previously described ([Chai et al., 2020]) with the following modifications. In vitro cytotoxicity was assessed in HepG2 (ATCC HB-8065) cells using the RealTime-Glo™ MT Cell Viability Assay Kit (Promega) as described previously ([Wang et al., 2017]). The LXC compounds were tested at 1 × and 2 × MIC using a final DMSO concentration of 2% (v/v) in the assay. […] The luminescence signal was read at 5-min intervals over 24 h in a Cytation5® Cell Imaging Multi-Mode Reader (Bio-Tek®), at 37°C in the presence of 5% CO2.
FIGURE 8 The LXC compounds are generally non-toxic at a concentration of 1 × MIC. (A–F) Real-time liver cell viability measurements for HepG2 after treatment with 1 × (pink line) and 2 × (brown line) MIC values. […] Cell viability was measured every 5 min for 24 h at 37°C and 5% CO2 on a Cytation5® Cell Imaging Multi-Mode Reader using the RealTime-Glo™ MT Cell Viability Assay reagent. The results are presented in mean ± SEM (hourly SEM data was presented).

[8] = A. baumannii XDR UW 5075, +PAβN 50 μg/mL
[9] = Acinetobacter baumannii, XDRUW5075
[10] = Acinetobacter baumannii, XDRUW5075, A. baumannii XDR UW 5075, +PAβN 100 μg/mL, read-out: MIC
[11] = Acinetobacter baumannii, XDRUW5075, A. baumannii XDR UW 5075, +PAβN 200 μg/mL, read-out: MIC

## Cc1nc2ccccc2n1C(=O)/C=C/c1ccccc1 [Compound 1]
[1]
  MIC: 128 µg/mL (≈ 488 µM)
[2]
  MIC: > 128 µg/mL
[3]; +PAβN 0 μg/mL
  MIC: 128 µg/mL
[3]; +PAβN 50 μg/mL
  MIC: 128 µg/mL
[3]; +PAβN 100 μg/mL
  MIC: 64 µg/mL
[3]; +PAβN 200 μg/mL
  MIC: 32 µg/mL
[4]; [8]
  MIC: >128 µg/mL
[4]; [9]
  MIC: > 128 µg/mL
[4]; [10]
  MIC: 128 µg/mL
[4]; [11]
  MIC: 64 µg/mL
[5]
  MIC: > 256 µg/mL
[6]
  Effect on tubulin polymerization: undesirable inhibitory activity
[7]; 2 × MIC
  Cytotoxicity, HepG2 cell viability: cytotoxicity was also observed

## Cc1nc2ccccc2n1C(=O)/C=C/c1ccc(Cl)cc1Cl [Compound 6]
[1]
  MIC: 64 µg/mL (≈ 193 µM)
[2]
  MIC: > 128 µg/mL
[3]; +PAβN 0 μg/mL
  MIC: 64 µg/mL
[3]; +PAβN 50 μg/mL
  MIC: 32 µg/mL
[3]; +PAβN 100 μg/mL
  MIC: 16 µg/mL
[3]; +PAβN 200 μg/mL
  MIC: 8 µg/mL
[4]; [8]
  MIC: >128 µg/mL
[4]; A. baumannii XDR UW 5075
  MIC in combination with PAβN: 32 µg/mL
[4]; [9]
  MIC: > 128 µg/mL
[4]; [10]
  MIC: 32 µg/mL
[4]; [11]
  MIC: 32 µg/mL
[5]
  MIC: > 256 µg/mL
[6]
  Effect on tubulin polymerization: devoid of tubulin polymerization activity; also recorded: lack of activity against the tubulin counter-target
[7]; 2 × MIC
  Cytotoxicity, HepG2 cell viability: devoid of hemolytic activity and cytotoxicity against mammalian cells in vitro; also recorded: devoid of undesirable toxicity

## COc1ccc(/C=C/C(=O)n2c(C)nc3ccccc32)cc1OC [Compound 5]
[1]
  MIC: 256 µg/mL (≈ 794 µM)
[2]
  MIC: > 128 µg/mL
[3]; +PAβN 0 μg/mL
  MIC: 256 µg/mL
[3]; +PAβN 50 μg/mL
  MIC: 128 µg/mL
[3]; +PAβN 100 μg/mL
  MIC: 8 µg/mL
[3]; +PAβN 200 μg/mL
  MIC: 8 µg/mL
[4]; [8]
  MIC: >128 µg/mL
[4]; A. baumannii XDR UW 5075
  MIC in combination with PAβN: 32 µg/mL
[4]; [9]
  MIC: > 128 µg/mL
[4]; [10]
  MIC: 64 µg/mL
[4]; [11]
  MIC: 32 µg/mL
[5]
  MIC: > 256 µg/mL
[6]
  Effect on tubulin polymerization: devoid of tubulin polymerization activity
[7]; 1 × MIC
  Cytotoxicity, HepG2 cell viability: displayed cytotoxicity

## Cc1nc2ccccc2n1C(=O)/C=C/c1ccc(F)cc1 [Compound 2]
[1]
  MIC: 128 µg/mL (≈ 457 µM)
[2]
  MIC: > 128 µg/mL
[3]; +PAβN 0 μg/mL
  MIC: 128 µg/mL
[3]; +PAβN 50 μg/mL
  MIC: 128 µg/mL
[3]; +PAβN 100 μg/mL
  MIC: 32 µg/mL
[3]; +PAβN 200 μg/mL
  MIC: 16 µg/mL
[4]; [8]
  MIC: >128 µg/mL
[4]; [9]
  MIC: > 128 µg/mL
[4]; [10]
  MIC: 64 µg/mL
[4]; [11]
  MIC: 64 µg/mL
[5]
  MIC: > 256 µg/mL
[6]
  Effect on tubulin polymerization: devoid of tubulin polymerization activity
[7]; 2 × MIC
  Cytotoxicity, HepG2 cell viability: cytotoxicity was also observed

## Cc1nc2ccccc2n1C(=O)/C=C/c1ccc(Br)cc1 [Compound 4]
[1]
  MIC: 32 µg/mL (≈ 93.8 µM)
[2]
  MIC: > 128 µg/mL
[3]; +PAβN 0 μg/mL
  MIC: 32 µg/mL
[3]; +PAβN 50 μg/mL
  MIC: 32 µg/mL
[3]; +PAβN 100 μg/mL
  MIC: 8 µg/mL
[3]; +PAβN 200 μg/mL
  MIC: 8 µg/mL
[4]; [8]
  MIC: >128 µg/mL
[4]; [9]
  MIC: > 128 µg/mL
[4]; [10]
  MIC: 128 µg/mL
[4]; [11]
  MIC: 64 µg/mL
[5]
  MIC: 256 µg/mL (≈ 750 µM)
[6]
  Effect on tubulin polymerization: undesirable inhibitory activity against tubulin
[7]; 2 × MIC
  Cytotoxicity, HepG2 cell viability: devoid of undesirable toxicity

## Cc1nc2ccccc2n1C(=O)/C=C/c1ccc(Cl)cc1 [Compound 3]
[1]
  MIC: 128 µg/mL (≈ 431 µM)
[2]
  MIC: > 128 µg/mL
[3]; +PAβN 0 μg/mL
  MIC: 128 µg/mL
[3]; +PAβN 50 μg/mL
  MIC: 128 µg/mL
[3]; +PAβN 100 μg/mL
  MIC: 8 µg/mL
[3]; +PAβN 200 μg/mL
  MIC: 8 µg/mL
[4]; [8]
  MIC: >128 µg/mL
[4]; [9]
  MIC: > 128 µg/mL
[4]; [10]
  MIC: 128 µg/mL
[4]; [11]
  MIC: 64 µg/mL
[5]
  MIC: > 256 µg/mL
[6]
  Effect on tubulin polymerization: undesirable inhibitory activity
[7]; 2 × MIC
  Cytotoxicity, HepG2 cell viability: cytotoxicity was also observed

From publication PMC9465178, “Cinnamaldehyde derivatives act as antimicrobial agents against Acinetobacter baumannii through the inhibition of cell division” (Frontiers in Microbiology, 2022)
